{
  "source": "ChEMBL document CHEMBL1150893",
  "about": "“Grenadadiene and grenadamide, cyclopropyl-containing fatty acid metabolites from the marine cyanobacterium Lyngbya majuscula” (J Nat Prod, 1998)",
  "key": {"[1]": {"assay": "Toxicity in Artemia salina", "assay_type": "organism-based", "details": "in vivo, read-out: LD50 (the source's name)"}, "[2]": {"assay": "Binding affinity to cannabinoid receptor in rat brain membrane assessed as cannabinomimetic activity", "assay_type": "cell membranes"}},
  "data": [
    {"smiles": "CCCCCCC[C@@H]1C[C@H]1CCC(=O)O/C=C\\C=C\\COC(C)=O", "note": "[DEBROMOGRENADINE]", "values": [
      {"measurement": "LC50", "setting": "[1]", "value": 5, "unit": "µg/mL"},
      {"measurement": "Ki", "setting": "[2]", "value": 4.7, "unit": "µM"}
    ]},
    {"smiles": "CCCCCCC[C@@H]1C[C@H]1CCC(=O)NCCc1ccccc1", "note": "[GRENADAMIDE C]", "values": [
      {"measurement": "LC50", "setting": "[1]", "value": 5, "unit": "µg/mL"},
      {"measurement": "Ki", "setting": "[2]", "value": 4.7, "unit": "µM"}
    ]}
  ]
}
